Reference: US12668600B2 (Kumquat Biosciences Inc., priority 2023, dated 2026)

target: T1, KRAS G12D (Homo sapiens, UniProt P01116, G12D); experiment: HTRF KRAS-SOS1 interaction assay, KRAS G12D; assay type: biochemical; settings: binned ≤2 μM / >2 μM, read-out: Inhibition of KRAS G12D (IC50)
T1 construct: made in house; host or cells: E. coli, e.g. BL21 (DE3)
Excerpt: This assay can be also used to assess a selective inhibition or reduction of signaling output of a mutant Ras protein relative to a wildtype, or relative to a different mutant Ras protein. For example, the equilibrium interaction of wildtype KRAS or K-Ras mutant (e.g., wildtype or a mutant thereof) with SOS1 (e.g., hSOS1) can be assessed as a proxy or an indication for the ability of a subject compound to bind and inhibit Ras protein. The HTRF assay detects from (i) a fluorescence resonance energy transfer (FRET) donor (e.g., antiGST-Europium) that is bound to GST-tagged K-Ras mutant to (ii) a FRET acceptor (e.g., anti-6His-XL665) bound to a His-tagged hSOS1.
The assay buffer can contain ˜5 mM HEPES pH 7.4, ˜150 mM NaCl, ˜1 mM DTT, 0.05% BSA and 0.0025% (v/v) Igepal. A Ras working solution is prepared in an assay buffer containing typically a suitable amount of the protein construct (e.g., GST-tagged K-Ras mutant) and the FRET donor (e.g., antiGST-Eu (K) from Cisbio, France). A SOS1 working solution is prepared in an assay buffer containing suitable amount of the protein construct (e.g., His-hSOS1) and the FRET acceptor (e.g., anti-6His-XL665 from Cisbio, France). A suitable amount of the protein construct will depend on the range of activity or range of IC50 values being detected or under investigation. For detecting an IC50 within a range of 500 nM, the protein constructs of the same range of molarity can be utilized.
A fixed volume of DMSO with or without test compound is transferred into a 384-well plate. Ras working solution is added to all wells of the test plate. SOS1 working solution is added to all wells except for those that are subsequently filled with inhibitor control solution. Upon incubation for about 10 minutes or longer, the fluorescence is measured with a M1000Pro plate reader (Tecan) using HTRF detection (excitation 337 nm, emission 1:620 nm, emission 2:665 nm). Compounds are tested in duplicate at different concentrations (for example, 10 μM, 2.5 μM, 0.63 μM, 0.16 μM, 0.04 μM, 0.01 μM test compound). The ratiometric data (i.e., emission 2 divided by emission 1) is used to calculate IC50 values against Ras using GraphPad Prism (GraphPad software). Signaling output measured in terms of IC50 values can be obtained and a ratio of IC50 against one mutant relative to another mutant can be calculated.

T1 sequence (P01116 1-188 isoform P01116-2 G12D): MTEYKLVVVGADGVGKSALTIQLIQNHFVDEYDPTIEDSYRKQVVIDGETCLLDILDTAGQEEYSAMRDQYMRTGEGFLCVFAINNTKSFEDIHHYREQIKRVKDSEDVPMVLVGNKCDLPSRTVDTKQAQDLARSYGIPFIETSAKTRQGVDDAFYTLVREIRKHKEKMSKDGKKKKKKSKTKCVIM

IC50, ≤ 2 µM:
Cc1cnc(N)c([C@@H](C)N2CCOc3c(C(F)(F)F)c(-c4ccc(F)c5sc(N)c(C#N)c45)c(F)c4nc(OC[C@@]56CCCN5C[C@H](F)C6)nc2c34)n1 (single isomer, unassigned) [Compound 767]
C=Cc1c(-c2ccc(F)c3sc(N)c(C#N)c23)c(F)c2nc(OC[C@@]34CCCN3C[C@H](F)C4)nc3c2c1OCCN3[C@H](C)c1cccnc1N (single isomer, unassigned) [Compound 787]
CCO/N=C1\CN2CCC[C@@]2(COc2nc3c4c(c(Cl)c(-c5ccc(F)c6sc(N)c(C#N)c56)c(F)c4n2)OCCN3[C@H](C)c2cccnc2N)C1 (single isomer, unassigned) [Compound 865]
C[C@H]1CN([C@@H](c2cccnc2N)C(F)F)c2nc(OC[C@@]34CCCN3C[C@H](F)C4)nc3c(F)c(-c4ccc(F)c5sc(N)c(C#N)c45)c(C(F)(F)F)c(c23)O1 (single isomer, unassigned) [Compound 889]
C[C@H](c1cccnc1N)N1CCOc2c(Cl)c(-c3cccc4sc(N)c(C#N)c34)c(F)c3nc(OC[C@@]45CCCN4CC(=C(F)F)C5)nc1c23 (single isomer, unassigned) [Compound 688]
N#Cc1c(N)sc2c(F)ccc(-c3c(Cl)c4c5c(nc(OC[C@@]67CCCN6C[C@H](F)C7)nc5c3F)N(C(/C=C\C(F)(F)F)c3cccnc3N)CCO4)c12 (single isomer, unassigned) [Compound 872]
C[C@H](c1cccnc1N)N1CCOc2c(C(F)(F)F)c(-c3ccc(F)c4sc(N)c(C#N)c34)c(F)c3nc(OC[C@@]45CCCN4CC(C#N)C5)nc1c23 (single isomer, unassigned) [Compound 754]
N#Cc1c(N)sc2c(F)ccc(-c3c(C(F)(F)F)c4c5c(nc(OC[C@@]67CCCN6C[C@H](F)C7)nc5c3F)N([C@H](CCC3CC(F)(F)C3)c3cccnc3N)CCO4)c12 (single isomer, unassigned) [Compound 724]
C[C@H](c1cccnc1N)N1CCOc2c(Cl)c(-c3ccc(F)c4sc(N)c(C#N)c34)c(F)c3nc(OCC45CCCN4C[C@H](OCCCP(C)(C)=O)C5)nc1c23 (single isomer, unassigned) [Compound 857]
N#Cc1c(N)sc2c(F)ccc(-c3c(C(F)(F)F)c4c5c(nc(OC[C@@]67CCCN6C[C@H](F)C7)nc5c3F)N([C@H](CC3CC(F)(F)C3)c3cccnc3N)CCO4)c12 (single isomer, unassigned) [Compound 703]
N#Cc1c(N)sc2c(F)ccc(-c3c(C(F)(F)F)c4c5c(nc(OC[C@@]67CCCN6C[C@H](F)C7)nc5c3F)N([C@H](CC3CCOCC3)c3cccnc3N)CCO4)c12 (single isomer, unassigned) [Compound 824]
CC(c1cccnc1N)N1CCOc2c(Cl)c(-c3ccc(F)c4sc(N)c(C#N)c34)c(F)c3nc(OC[C@@]45CCCN4C[C@H](F)C5)nc1c23 (single isomer, unassigned) [Compound 820]
C[C@H](c1cccnc1N)N1CCOc2c(C(F)(F)F)c(-c3cccc4sc(N)c(C#N)c34)c(F)c3nc(OC[C@@]45CCCN4C[C@H](F)C5)nc1c23 (single isomer, unassigned) [Compound 791]
CCC(c1cccnc1N)N1CCOc2c(Cl)c(-c3ccc(F)c4sc(N)c(C#N)c34)c(F)c3nc(OC[C@@]45CCCN4C[C@H](F)C5)nc1c23 (mixture of isomers) [Compound 844, 2-amino-4-(4-(1-(2-aminopyridin-3-yl)propyl)-8-chloro-10-fluoro-2-(((2R,7aS)-2-fluorotetrahydro-1H-pyrrolizin-7a(5H)-yl)methoxy)-5,6-dihydro-4H-[1,4]oxazepino[5,6,7-de]quinazolin-9-yl)-7-fluorobenzo[b]thiophene-3-carbonitrile]
